These results are taken from patent US12502400B2, “Method of preventing of systemic-to-pulmonary-artery shunt thrombosis” (Chiesi Farmaceutici S.p.A., priority 2017, dated 2025).

Like-named read-outs stand apart in the source and are kept apart here.

Data set [1] concerns purified platelets. As to the kind of experiment: ADP-induced platelet aggregation by light transmission aggregometry (LTA), EC50 for ADP. It counts as cell-based, human. The conditions noted are these: LTA with fibrinogen. Here is the method: Purified platelets were suspended to a final concentration of 400,000/μl in platelet buffer containing 145 mM NaCl, 10 mM Hepes, 0.5 mM Na2HPO4, 5 mM KCl, 2 mM MgCl2, 1 mM CaCl2), 0.10% glucose, pH 7.4. […] Human fibrinogen (final concentration 200 μg/ml) was added to the platelet suspensions just prior to activation. Aggregation was assessed using a Chronolog Lumi-Aggregometer (model 540 VS, Chronolog, Havertown, PA) and permitted to proceed for 6 min after the addition of agonist. The results are reported as maximum percent change in light transmittance from baseline with platelet buffer used as a reference.
We next determine the functional response of platelets from neonates as well as older patients with congenital heart disease to ADP stimulation. This was accomplished by calculating EC50 values for the agonist using isolated platelets in fibrinogen-supplemented buffer.

For data set [2] the following is noted: early institution within 12 hours of surgery; cited from earlier work.
The conditions of data set [3]: adults with coronary artery disease, cited from earlier work.
Data set [4] has as its system human platelet thrombus formation. As to the kind of experiment: Human platelet thrombus formation in laser-injured arterioles of avatar mice. Format: in vivo, VWFHA1 mutant mice. The conditions noted are these: for Contrast estimate (mean difference in thrombus size pre- and post-administration): linear mixed model; for platelet accumulation at sites of arteriole injury: platelets from neonates and older pediatric CHD patients. Here is the method:
Administration of anesthesia, insertion of venous and arterial catheters, fluorescent labeling of human platelets, and surgical preparation of the cremaster muscle in 12 week old male VWF HA1 mice have been previously described.
Human platelets (700K/μL) were continuously infused (25 μl/min) through a catheter placed in the ipsilateral femoral artery 2 min prior to and during laser-induced injury to ensure a level of circulating cells equivalent to humans.^33 Injury to the vessel wall of arterioles (40-65 μm diameter) was performed with a pulsed nitrogen dye laser applied through a 20× water-immersion Olympus objective. Human platelet-vessel wall interactions were visualized by fluorescence microscopy using a system equipped with a Yokogawa CSU-22 spinning disk confocal scanner, iXON EM camera, and 488-nm laser line (Revolution XD, Andor Technology, South Windsor, CT) to detect Calcein-AM-labeled cells, respectively. The extent of thrombus formation was assessed for 3 min after injury and the maximal area (μm^2) of coverage determined by off-line analysis (ImagePro Plus, Media Cybernetics, Bethesda, MD).
A minimum of 5 mice per patient group were studied (2 and 4 arterial segments pre and post-cangrelor per mouse, respectively).
To compare mean thrombus areas between different treatment groups, we fit linear mixed models with random intercepts for each study animal. Linear mixed models permit comparison of mean differences between treatment groups while also considering the effect of the clustering of the data on the SEs resulting from multiple measurements obtained from each mouse used in intravital studies. In the case of platelet aggregation studies, values are presented as mean±SEM. A 2-tailed Student t test was used for comparisons between control conditions and treatments. Differences with values of P<0.05 were considered statistically significant.

The subject of data set [5] is platelets in PPACK-treated whole blood. As to the kind of experiment: Multichannel microfluidic device, platelet accumulation on collagen under flow. Format: cell-based. The note with it: Homo sapiens, read-out: effective IC50 (surface fluorescence at 300 s). The method, then:
Microfluidic devices with 8 individual channels (250 μm wide×60 μm-high) were fabricated in polydimethylsiloxane (PDMS) as previously described. The device was reversibly vacuum-sealed to a glass slide with its flow channels aligned perpendicularly to a patterned type 1 collagen surface (1 mg/ml). To visualize platelet accumulation over time, an Alexa Fluor 488 conjugated, non-function blocking mouse anti-human CD61 (GPIIb/IIIa) antibody was added (1:50 ratio) 7 min prior to performing experiments (0.125 μg/ml final concentration).
Whole blood from neonates with single ventricle pathology or healthy adults was perfused over the prothrombotic surface at an initial wall shear rate of 100 s^−1 by withdrawal from a single outlet into a syringe pump (Harvard Apparatus Pump 11 Elite, Holliston, MA). Platelet accumulation was visualized (10× objective lens) using an automated inverted microscope system (DMI6000, Leica) equipped with a CCD camera (DFC365FX, Leica). A custom stage insert held three microfluidic devices allowing replicate testing of four conditions. Images were captured in 30 s intervals for a total of 5 min. Platelet fluorescence intensities, which are directly proportional to the total platelet mass were measured and analyzed with Image J software (Image J; NIH, Bethesda, MD). The center 65% of the prothrombotic region was selected for analysis to avoid edge effects. […]

For data set [6], the system named is platelet aggregation. As to the kind of experiment: Phase 1 PK/PD clinical trial in post-operative neonates with CHD, LTA and microfluidics. Format: in vivo, human. The note with it: infusion 0.5 or 0.25 μg/kg/min for one hour; post-operative neonates with shunt. From the text: FIG. 7. Pharmacodynamic properties of cangrelor administered to neonates with CHD in the early post-operative period. A phase 1 clinical trial is currently being conducted to assess the drug plasma levels and effects on platelet aggregation using LTA and microfluidics. […] B, microfluidic results under the same conditions as outlined for LTA.

For data set [7] the following is noted: cited from earlier work.
Data set [8] deals with T1, integrin αIIbβ3 (Homo sapiens, UniProt P05106+P08514).
T1 construct: the platelet integrin receptor αIIbβ3 that stabilizes adhesion by engaging with ligands such as VWF; endogenous in cells; host or cells: platelets from pediatric patients with CHD or healthy adults
As to the kind of experiment: ADP-induced firm adhesion of platelets to surface-immobilized VWF in flow. Format: cell-based. The note with it: platelets from pediatric CHD patients or healthy adults. Here is the method: A parallel-plate flow chamber was used to assess platelet accumulation on surface-immobilized plasma VWF at a wall shear rate of 1,600s-1.29, 31 In brief, a polyclonal anti-VWF antibody was absorbed overnight (4° C.) to a six-well tissue culture plate. Subsequently, the plate was washed and nonspecific interactions blocked by the addition of TBS containing 3% BSA, pH 7.4 (30 min, 37° C.). Human or murine (VWF^HA1) plasma obtained from heparinized whole blood was added and the plates placed at 37° C. for an additional hour prior to use. Citrated whole blood was then perfused over the reactive substrate for 3 minutes, followed by the addition of platelet buffer lacking CaCl2 for 1 min. The number of platelets attached per unit area was determined by offline analysis (ImagePro Plus, Media Cybernetics, Bethesda, MD) of recorded digital images. For GPIbα inhibition studies, mAb 6D1 (10 μg/ml) was added to anticoagulated human blood for 10 min before use.
Although GPIbα initiates platelet deposition at arterial shear rates, this adhesive interaction is labile in nature permitting platelets to translocate in response to forces generated by flowing blood. Ultimately it is the platelet integrin receptor αIIbβ3 that stabilizes adhesion by engaging with ligands such as VWF in response to ADP and/or thrombin.

For the molecule `Nc1ncnc2c1ncn2[C@@H]1O[C@H](COP(=O)(O)OP(=O)(O)O)[C@@H](O)[C@H]1O` [ADP], the 50% effective concentration (EC50) is 3.4 ± 0.1 µM in data set [1] (platelets from CHD patients 0-28 days), 2.9 ± 0.1 µM in data set [1] (platelets from CHD patients 1-10 years), 3.2 ± 0.2 µM in data set [1] (platelets from CHD patients 11-18 years) and 3.2 ± 0.2 µM in data set [1] (platelets from healthy adults).

`CC(=O)Oc1ccccc1C(=O)O` [aspirin]: the “risk of shunt thrombosis and death” value in data set [2] was “reduced the risk of shunt thrombosis and death”.

For the molecule `CSCCNc1nc(SCCC(F)(F)F)nc2c1ncn2[C@@H]1O[C@H](COP(=O)(O)OP(=O)(O)C(Cl)(Cl)P(=O)(O)O)[C@@H](O)[C@H]1O` [cangrelor], the “risk of severe bleeding” value in data set [3] (PCI) is recorded as “without significantly increasing the risk of severe bleeding”. The “ischemic events during PCI” value in data set [3] is given as “significantly reduce ischemic events”. Also, the “Contrast estimate (mean difference in thrombus size pre- and post-administration)” value was 3,501 μm2 in data set [4] (platelets from adults), 2,261 μm2 in data set [4] (platelets from age group 0-28 days), 3,314 μm2 in data set [4] (platelets from age group 1-10 years) and 3,475 μm2 in data set [4] (platelets from age group 11-18 years). In data set [4] (platelets from neonates and older CHD patients, all cases, doses recommended for PCI, P<0.0001), the reduced thrombus size is over 45%. Moreover, in data set [4], the “platelet accumulation at sites of arteriole injury” value is reported as “did not completely prevent platelet accumulation”. The “reduction in thrombus size” value in data set [4] (platelets from pediatric cardiac patients, 30 μg/kg bolus then 4 μg/kg/min infusion, P<0.0001) was about 45%. Besides, the IC50 came out at 0.00095 µM in data set [5] (whole blood from healthy adults) and 0.00069 µM in data set [5] (whole blood from neonates with CHD (single ventricle physiology)). In addition, in data set [6], the “effect on platelet aggregation assessed by LTA and microfluidics” value was “efficacy and rapid reversibility”. The “restoration of hemostasis, as assessed by bleeding time” value in data set [7] (after cessation of infusion of a supratherapeutic dose) is at most 10 min. Besides, the “full platelet function recovery as determined by response to ADP” value in data set [7] (after cessation of infusion) was at most 60 min.

As to “abciximab: function blocking antibody to integrin αIIbβ3”, the “firm adhesion of platelets to surface-immobilized VWF in response to ADP” value in data set [8] is “prevent the firm adhesion”. Besides, the “platelet accumulation at sites of arteriole injury” value in data set [4] was “nearly abrogated platelet-vessel wall interactions”. Besides, the abrogated platelet accumulation in data set [4] (platelets from pediatric cardiac patients, laser-injured arterioles, P<0.0001) was over 90%.

Usually EC50 stands for the concentration at which the effect is half-maximal. A word on the IC50: it is the concentration needed to halve the response being measured.
